From PubChem BioAssay (NCI) come the findings set out here.

The structures appear in SMILES notation. “And” between values parts separate entries of the source, which are not always exact repeats. Equal values may be shown once.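 Exposure lasted 48 hours, with cells grown in 96-well plates and compounds tested at five concentrations. The concentration for 50% growth inhibition is given as GI50. TGI: total growth inhibition.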 A value given as a limit tells only on which side of the number the result lay.

Holding throughout (assay): inhibition of tumour cell growth, NCI panel, 48 h
For assay [1], the system named is SNB-75 CNS.
The subject of assay [2] is MALME-3M melanoma.
The test system of assay [3] is SF-295 CNS.
For assay [4], the system named is RXF 393 renal.
For assay [5], the system named is KM12 colon.
In assay [6] the test system is EKVX NSCLC.
The test system of assay [7] is IGROV1 ovarian.
For assay [8], the system named is HCT-116 colon.
In assay [9] the test system is HL-60(TB) leukemia.
Assay [10] concerns SK-OV-3 ovarian.

With `O=C(O)C(Cl)Cl`, the GI50 was 3500 µM and > 10000 µM in assay [1]; 2500 µM and > 10000 µM in assay [2]; 4230 µM and > 10000 µM in assay [3]; 5140 µM and > 10000 µM in assay [4]; more than 10000 µM in assay [5]; more than 10000 µM in [6]. Moreover, the GI50 in [7] was more than 10000 µM; in assay [8], 6700 µM and > 10000 µM; in assay [9], 7270 µM and > 7660 µM; in [10] it was more than 10000 µM. Further, the TGI in assay [1], in assay [2], in [3], in [4], in assay [5] and in [6] was more than 10000 µM throughout. For the same compound, the TGI in [7], in assay [8], in assay [9] and in assay [10] was more than 10000 µM throughout.
In the case of `O=C1c2c(F)c(F)c(F)c(F)c2C(=O)N1c1ccc(F)cc1F`, the GI50 in assay [1] is 12.7 µM; in [2] it was 13.4 µM; in [3], 13.7 µM; in [4], 7.68 µM; in assay [5], 22.5 µM; in assay [6], 16.8 µM. Besides, the GI50 in assay [7] was 6.54 µM; in [8], 3.71 µM; in [9], 0.403 µM; in assay [10], 20.7 µM. Also, the TGI in assay [1] was 34.6 µM; in assay [2], 33.9 µM; in assay [3], 46.4 µM; in [4] it was more than 46.7 µM; in assay [5], 65.5 µM; in [6], 35.9 µM. In addition, the TGI in [7] worked out at 19.3 µM; in [8] it was 14.2 µM; in assay [9] it was 0.891 µM; in assay [10] it was 50.2 µM.
`O=C(/C=C/c1c(O)ccc2ccccc12)c1ccc([N+](=O)[O-])cc1`: the TGI in assay [1] was more than 100 µM; in [2], 49.7 µM; in [3] it was more than 100 µM; in assay [4], 61.8 µM; in assay [5] it was more than 100 µM; in assay [6] it was more than 100 µM. Also, the TGI is more than 100 µM in assay [7], 37.4 µM in [8], 48.6 µM in assay [9] and more than 100 µM in assay [10].
As to `O=c1[nH]c(-c2ccccc2)nc2cc(Cl)ccc12`, the TGI in [1], in assay [2], in [3], in [4], in assay [5] and in assay [6] was more than 100 µM in each case. Moreover, the TGI in [7], in [8], in assay [9] and in assay [10] was more than 100 µM each time.
Consider `COc1ccc2ncnc(Nc3ccc(OCc4ccccc4)cc3)c2c1`, for which the GI50 in [1] is 9.78 µM; in [2], 10.1 µM; in assay [3], 5.15 µM; in assay [4], 4.59 µM; in [5], 8.67 µM; in [6], 2.25 µM. Besides, the GI50 in assay [7] is 6.61 µM; in assay [8], 8.35 µM; in assay [9], 7.06 µM; in assay [10], 3.41 µM. For the same compound, the TGI in [1] was more than 25 µM; in assay [2], more than 25 µM; in assay [3], more than 18.7 µM; in assay [4], 10.2 µM; in assay [5], more than 25 µM; in assay [6], 12.9 µM. The TGI in assay [7] is more than 22.2 µM; in assay [8], more than 25 µM; in assay [9], 16.8 µM; in [10], more than 23.6 µM.
Take `COc1c(CC(C)=O)ccc2c1C(=O)c1ccc(C=O)c(OC(C)=O)c1C2=O`: the TGI was found to be 77.8 µM in assay [1]; 25.5 µM in assay [2]; 53.3 µM in [3]; 25.4 µM in assay [4]; 39.2 µM in assay [5]; 56.9 µM in assay [6]. The TGI in assay [7] was 44.2 µM; in assay [8], 24.9 µM; in assay [9], 22.4 µM; in [10], more than 100 µM.
For `O=[N+]([O-])c1cc([N+](=O)[O-])c(C(F)(F)F)cc1NN=C(c1ccc(O)cc1)c1ccc(O)cc1`, the GI50 in assay [1] was 3.53 µM; in assay [2], 4.72 µM; in assay [3] it was 1.57 µM; in assay [4], 2.64 µM; in [5], 2.7 µM; in assay [6], 2.75 µM. The GI50 in assay [7] is 3.79 µM; in assay [8], 2.67 µM; in assay [9], 3.12 µM; in assay [10] it was 4.25 µM. The TGI in assay [1] stood at 16.8 µM; in [2] it was 35.1 µM; in assay [3], 3.81 µM; in [4] it was 8.47 µM; in assay [5], 7.85 µM; in assay [6] it was 14.6 µM. Besides, the TGI was found to be 14.4 µM in assay [7], 11.9 µM in assay [8], 11.8 µM in [9] and 14.6 µM in assay [10].
As to `CC(=O)OCc1ccc2c(c1)C(O)NC(=O)O2` (stereo not given), the TGI in assay [1], in [2], in assay [3], in [4], in assay [5] and in assay [6] was more than 100 µM throughout. The TGI in assay [7], in [8], in assay [9] and in assay [10] was more than 100 µM throughout.
Regarding `CN(C)C(=S)/N=c1\ssc(=S)n1C1CCCCC1`, the TGI is more than 100 µM in assay [1]; 64.8 µM in [2]; more than 100 µM in assay [3]; more than 100 µM in [4]; more than 100 µM in [5]; more than 100 µM in assay [6]. The TGI in assay [7] is more than 100 µM; in assay [8] it was 32.3 µM; in [9], 32.5 µM; in [10], more than 100 µM.
For the compound `CN(C)CC1CCCC/C1=N/O` (stereo not given), the TGI in [1], in assay [2], in [3], in [4], in [5] and in assay [6] was more than 100 µM in each case. For the same compound, the TGI in assay [7], in assay [8], in assay [9] and in [10] was more than 100 µM each time.
